# System: windgrass
# Experiment: Test Example 4: herbicidal effect by soil treatment (Table 19, symbol L)
# Assay type: in vivo, windgrass (Apera spica-venti)
# Details: 320 g/ha
# How it was run: (§1)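 Soil-surface application: an emulsion agent diluted with water to the predetermined dose is sprayed uniformly over seeds lying under roughly 1.5 cm of sterilized diluvial soil. Boxes stay in a greenhouse at 25° C. to 30° C. Three weeks later, each species is graded on previously defined criteria.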
row,Compound,"herbicidal effect rating, L: windgrass"
1,CCCC(=O)Oc1c(C)nn(C)c(=O)c1-c1c(-c2ccc(OC)c(F)c2)sc2ccc(F)cc12 [2-087],0 (Herbicidal rate of 5% or less (almost no effect))
2,COc1ccc(-c2sc3ccc(F)cc3c2-c2c(O)c(C)nn(C)c2=O)cc1OC [2-088],0 (Herbicidal rate of 5% or less (almost no effect))
3,CCCC(=O)Oc1c(C)nn(C)c(=O)c1-c1c(-c2ccc(OC)c(OC)c2)sc2ccc(F)cc12 [2-089],0 (Herbicidal rate of 5% or less (almost no effect))

# System: green foxtail
# Experiment: Test Example 5: herbicidal effect by foliage application, plastic box (Table 20, symbol G)
# Assay type: in vivo, green foxtail (Setaria viridis)
# Details: foliage application, 320 g/ha, evaluated three weeks after application
# How it was run: (§2)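 Sow seeds spot-wise in sterilized diluvial soil; cover with ~1.5 cm soil. Grow 14 days in greenhouse, 25° C. to 30° C. Spray foliage with emulsion diluted to predetermined amount. Rate effect after 3 weeks.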
row,Compound,herbicidal effect on G: green foxtail
1,CCCC(=O)Oc1c(C)nn(C)c(=O)c1-c1c(-c2ccc(OC)c(F)c2)sc2ccc(F)cc12 [2-087],0 (Herbicidal rate of 5% or less (almost no effect))
2,COc1ccc(-c2sc3ccc(F)cc3c2-c2c(O)c(C)nn(C)c2=O)cc1OC [2-088],5 (Herbicidal rate of 90% or more (almost completely withered))
3,CCCC(=O)Oc1c(C)nn(C)c(=O)c1-c1c(-c2ccc(OC)c(OC)c2)sc2ccc(F)cc12 [2-089],5 (Herbicidal rate of 90% or more (almost completely withered))

# System: redroot pigweed
# Experiment: Test Example 5: herbicidal effect by foliage application, plastic box (Table 20, symbol N)
# Assay type: in vivo, redroot pigweed (Amaranthus retroflexus)
# Details: foliage application, 320 g/ha, evaluated three weeks after application
# How it was run: as §2
row,Compound,herbicidal effect on N: redroot pigweed
1,CCCC(=O)Oc1c(C)nn(C)c(=O)c1-c1c(-c2ccc(OC)c(F)c2)sc2ccc(F)cc12 [2-087],4 (Herbicidal rate of 70% or more and less than 90%)
2,COc1ccc(-c2sc3ccc(F)cc3c2-c2c(O)c(C)nn(C)c2=O)cc1OC [2-088],5 (Herbicidal rate of 90% or more (almost completely withered))
3,CCCC(=O)Oc1c(C)nn(C)c(=O)c1-c1c(-c2ccc(OC)c(OC)c2)sc2ccc(F)cc12 [2-089],4 (Herbicidal rate of 70% or more and less than 90%)

# System: rice flat sedge
# Experiment: Test Example 3: herbicidal effect by foliage application, Wagner pot (Table 18, symbol E)
# Assay type: in vivo, rice flat sedge (Cyperus iria)
# Details: 320 g/ha
# How it was run: (§3)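 Plants were sown in alluvial soil held under 0.1–0.5 cm standing water and grown 14 days in a greenhouse at 25–30 °C. An emulsifiable formulation, water-diluted to the set dose, was then sprayed onto the foliage, and effects were scored three weeks later using previously defined criteria.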
row,Compound,"herbicidal effect on E (rice flat sedge), rating 0-5"
1,CCCC(=O)Oc1c(C)nn(C)c(=O)c1-c1c(-c2ccc(OC)c(F)c2)sc2ccc(F)cc12 [2-087],5 (Herbicidal rate of 90% or more (almost completely withered))
2,COc1ccc(-c2sc3ccc(F)cc3c2-c2c(O)c(C)nn(C)c2=O)cc1OC [2-088],5 (Herbicidal rate of 90% or more (almost completely withered))
3,CCCC(=O)Oc1c(C)nn(C)c(=O)c1-c1c(-c2ccc(OC)c(OC)c2)sc2ccc(F)cc12 [2-089],5 (Herbicidal rate of 90% or more (almost completely withered))

# System: Italian ryegrass
# Experiment: Test Example 5: herbicidal effect by foliage application, plastic box (Table 20, symbol K)
# Assay type: in vivo, Italian ryegrass (Lolium multiflorum)
# Details: foliage application, 320 g/ha, evaluated three weeks after application
# How it was run: as §2
row,Compound,herbicidal effect on K: Italian ryegrass
1,CCCC(=O)Oc1c(C)nn(C)c(=O)c1-c1c(-c2ccc(OC)c(F)c2)sc2ccc(F)cc12 [2-087],1 (Herbicidal rate of 5% or more and less than 20%)
2,COc1ccc(-c2sc3ccc(F)cc3c2-c2c(O)c(C)nn(C)c2=O)cc1OC [2-088],4 (Herbicidal rate of 70% or more and less than 90%)
3,CCCC(=O)Oc1c(C)nn(C)c(=O)c1-c1c(-c2ccc(OC)c(OC)c2)sc2ccc(F)cc12 [2-089],4 (Herbicidal rate of 70% or more and less than 90%)

# System: blackgrass
# Experiment: Test Example 5: herbicidal effect by foliage application, plastic box (Table 20, symbol J)
# Assay type: in vivo, blackgrass (Alopecurus myosuroides)
# Details: foliage application, 320 g/ha, evaluated three weeks after application
# How it was run: as §2
row,Compound,herbicidal effect on J: blackgrass
1,CCCC(=O)Oc1c(C)nn(C)c(=O)c1-c1c(-c2ccc(OC)c(F)c2)sc2ccc(F)cc12 [2-087],0 (Herbicidal rate of 5% or less (almost no effect))
2,COc1ccc(-c2sc3ccc(F)cc3c2-c2c(O)c(C)nn(C)c2=O)cc1OC [2-088],0 (Herbicidal rate of 5% or less (almost no effect))
3,CCCC(=O)Oc1c(C)nn(C)c(=O)c1-c1c(-c2ccc(OC)c(OC)c2)sc2ccc(F)cc12 [2-089],0 (Herbicidal rate of 5% or less (almost no effect))

# System: Japanese bulrush
# Experiment: Test Example 1: herbicidal activity, application before weed generation under submerged conditions (Table 16, symbol B)
# Assay type: in vivo, Japanese bulrush (Schoenoplectus juncoides)
# Details: 320 g/ha applied herbicide
# How it was run: (§4)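 Emulsion formulation, water-diluted to set dose, was put onto the flooded surface (4 cm depth, alluvial soil) the same day weeds were sown and 2.5-leaf rice transplanted. After 3 weeks at 25-30 °C under glass, each species was rated 0 (≤5% kill) to 5 (≥90% kill).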
row,Compound,Herbicidal effect on B: Japanese bulrush (grade 0-5)
1,CCCC(=O)Oc1c(C)nn(C)c(=O)c1-c1c(-c2ccc(OC)c(F)c2)sc2ccc(F)cc12 [2-087],4 (Herbicidal rate of 70% or more and less than 90%)
2,COc1ccc(-c2sc3ccc(F)cc3c2-c2c(O)c(C)nn(C)c2=O)cc1OC [2-088],2 (Herbicidal rate of 20% or more and less than 40%)
3,CCCC(=O)Oc1c(C)nn(C)c(=O)c1-c1c(-c2ccc(OC)c(OC)c2)sc2ccc(F)cc12 [2-089],4 (Herbicidal rate of 70% or more and less than 90%)

# System: late watergrass
# Experiment: Test Example 1: herbicidal activity, application before weed generation under submerged conditions (Table 16, symbol A)
# Assay type: in vivo, late watergrass (Echinochloa oryzicola)
# Details: 320 g/ha applied herbicide
# How it was run: as §4
row,Compound,Herbicidal effect on A: late watergrass (grade 0-5)
1,CCCC(=O)Oc1c(C)nn(C)c(=O)c1-c1c(-c2ccc(OC)c(F)c2)sc2ccc(F)cc12 [2-087],5 (Herbicidal rate of 90% or more (almost completely withered))
2,COc1ccc(-c2sc3ccc(F)cc3c2-c2c(O)c(C)nn(C)c2=O)cc1OC [2-088],3 (Herbicidal rate of 40% or more and less than 70%)
3,CCCC(=O)Oc1c(C)nn(C)c(=O)c1-c1c(-c2ccc(OC)c(OC)c2)sc2ccc(F)cc12 [2-089],5 (Herbicidal rate of 90% or more (almost completely withered))

# System: redroot pigweed
# Experiment: Test Example 4: herbicidal effect by soil treatment (Table 19, symbol N)
# Assay type: in vivo, redroot pigweed (Amaranthus retroflexus)
# Details: 320 g/ha
# How it was run: as §1
row,Compound,"herbicidal effect rating, N: redroot pigweed"
1,CCCC(=O)Oc1c(C)nn(C)c(=O)c1-c1c(-c2ccc(OC)c(F)c2)sc2ccc(F)cc12 [2-087],3 (Herbicidal rate of 40% or more and less than 70%)
2,COc1ccc(-c2sc3ccc(F)cc3c2-c2c(O)c(C)nn(C)c2=O)cc1OC [2-088],4 (Herbicidal rate of 70% or more and less than 90%)
3,CCCC(=O)Oc1c(C)nn(C)c(=O)c1-c1c(-c2ccc(OC)c(OC)c2)sc2ccc(F)cc12 [2-089],4 (Herbicidal rate of 70% or more and less than 90%)

# System: late watergrass
# Experiment: Test Example 2: herbicidal activity, application during weed generation under submerged conditions (Table 17, symbol A)
# Assay type: in vivo, late watergrass (Echinochloa oryzicola)
# Details: AAH 320 g/ha; application during weed generation, submerged conditions
# How it was run: (§5)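 Mixed weed seedlings in alluvial soil under a 4 cm water layer, greenhouse-grown at 25–30° C. Compound given as a diluted emulsion into the floodwater at the 1–2 leaf stage; response graded after three weeks.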
row,Compound,"herbicidal effect rating, A: late watergrass"
1,CCCC(=O)Oc1c(C)nn(C)c(=O)c1-c1c(-c2ccc(OC)c(F)c2)sc2ccc(F)cc12 [2-087],0 (Herbicidal rate of 5% or less (almost no effect))
2,COc1ccc(-c2sc3ccc(F)cc3c2-c2c(O)c(C)nn(C)c2=O)cc1OC [2-088],3 (Herbicidal rate of 40% or more and less than 70%)
3,CCCC(=O)Oc1c(C)nn(C)c(=O)c1-c1c(-c2ccc(OC)c(OC)c2)sc2ccc(F)cc12 [2-089],4 (Herbicidal rate of 70% or more and less than 90%)

# System: oval-leafed pondweed
# Experiment: Test Example 2: herbicidal activity, application during weed generation under submerged conditions (Table 17, symbol C)
# Assay type: in vivo, oval-leafed pondweed (Monochoria vaginalis)
# Details: AAH 320 g/ha; application during weed generation, submerged conditions
# How it was run: as §5
row,Compound,"herbicidal effect rating, C: oval-leafed pondweed"
1,CCCC(=O)Oc1c(C)nn(C)c(=O)c1-c1c(-c2ccc(OC)c(F)c2)sc2ccc(F)cc12 [2-087],0 (Herbicidal rate of 5% or less (almost no effect))
2,COc1ccc(-c2sc3ccc(F)cc3c2-c2c(O)c(C)nn(C)c2=O)cc1OC [2-088],2 (Herbicidal rate of 20% or more and less than 40%)
3,CCCC(=O)Oc1c(C)nn(C)c(=O)c1-c1c(-c2ccc(OC)c(OC)c2)sc2ccc(F)cc12 [2-089],4 (Herbicidal rate of 70% or more and less than 90%)

# System: barnyard grass
# Experiment: Test Example 5: herbicidal effect by foliage application, plastic box (Table 20, symbol H)
# Assay type: in vivo, barnyard grass (Echinochloa crus-galli)
# Details: foliage application, 320 g/ha, evaluated three weeks after application
# How it was run: as §2
row,Compound,herbicidal effect on H: barnyard grass
1,CCCC(=O)Oc1c(C)nn(C)c(=O)c1-c1c(-c2ccc(OC)c(F)c2)sc2ccc(F)cc12 [2-087],0 (Herbicidal rate of 5% or less (almost no effect))
2,COc1ccc(-c2sc3ccc(F)cc3c2-c2c(O)c(C)nn(C)c2=O)cc1OC [2-088],3 (Herbicidal rate of 40% or more and less than 70%)
3,CCCC(=O)Oc1c(C)nn(C)c(=O)c1-c1c(-c2ccc(OC)c(OC)c2)sc2ccc(F)cc12 [2-089],4 (Herbicidal rate of 70% or more and less than 90%)

# System: wild oat
# Experiment: Test Example 5: herbicidal effect by foliage application, plastic box (Table 20, symbol I)
# Assay type: in vivo, wild oat (Avena fatua)
# Details: foliage application, 320 g/ha, evaluated three weeks after application
# How it was run: as §2
row,Compound,herbicidal effect on I: wild oat
1,CCCC(=O)Oc1c(C)nn(C)c(=O)c1-c1c(-c2ccc(OC)c(F)c2)sc2ccc(F)cc12 [2-087],0 (Herbicidal rate of 5% or less (almost no effect))
2,COc1ccc(-c2sc3ccc(F)cc3c2-c2c(O)c(C)nn(C)c2=O)cc1OC [2-088],0 (Herbicidal rate of 5% or less (almost no effect))
3,CCCC(=O)Oc1c(C)nn(C)c(=O)c1-c1c(-c2ccc(OC)c(OC)c2)sc2ccc(F)cc12 [2-089],0 (Herbicidal rate of 5% or less (almost no effect))

# System: Italian ryegrass
# Experiment: Test Example 4: herbicidal effect by soil treatment (Table 19, symbol K)
# Assay type: in vivo, Italian ryegrass (Lolium multiflorum)
# Details: 320 g/ha
# How it was run: as §1
row,Compound,"herbicidal effect rating, K: Italian ryegrass"
1,CCCC(=O)Oc1c(C)nn(C)c(=O)c1-c1c(-c2ccc(OC)c(F)c2)sc2ccc(F)cc12 [2-087],0 (Herbicidal rate of 5% or less (almost no effect))
2,COc1ccc(-c2sc3ccc(F)cc3c2-c2c(O)c(C)nn(C)c2=O)cc1OC [2-088],3 (Herbicidal rate of 40% or more and less than 70%)
3,CCCC(=O)Oc1c(C)nn(C)c(=O)c1-c1c(-c2ccc(OC)c(OC)c2)sc2ccc(F)cc12 [2-089],4 (Herbicidal rate of 70% or more and less than 90%)

# System: barnyard grass
# Experiment: Test Example 3: herbicidal effect by foliage application, Wagner pot (Table 18, symbol H)
# Assay type: in vivo, barnyard grass (Echinochloa crus-galli)
# Details: 320 g/ha
# How it was run: as §3
row,Compound,"herbicidal effect on H (barnyard grass), rating 0-5"
1,CCCC(=O)Oc1c(C)nn(C)c(=O)c1-c1c(-c2ccc(OC)c(F)c2)sc2ccc(F)cc12 [2-087],3 (Herbicidal rate of 40% or more and less than 70%)
2,COc1ccc(-c2sc3ccc(F)cc3c2-c2c(O)c(C)nn(C)c2=O)cc1OC [2-088],5 (Herbicidal rate of 90% or more (almost completely withered))
3,CCCC(=O)Oc1c(C)nn(C)c(=O)c1-c1c(-c2ccc(OC)c(OC)c2)sc2ccc(F)cc12 [2-089],4 (Herbicidal rate of 70% or more and less than 90%)

# System: Chinese sprangletop
# Experiment: Test Example 3: herbicidal effect by foliage application, Wagner pot (Table 18, symbol D)
# Assay type: in vivo, chinese sprangletop (Leptochloa chinensis)
# Details: 320 g/ha
# How it was run: as §3
row,Compound,"herbicidal effect on D (Chinese sprangletop), rating 0-5"
1,CCCC(=O)Oc1c(C)nn(C)c(=O)c1-c1c(-c2ccc(OC)c(F)c2)sc2ccc(F)cc12 [2-087],2 (Herbicidal rate of 20% or more and less than 40%)
2,COc1ccc(-c2sc3ccc(F)cc3c2-c2c(O)c(C)nn(C)c2=O)cc1OC [2-088],3 (Herbicidal rate of 40% or more and less than 70%)
3,CCCC(=O)Oc1c(C)nn(C)c(=O)c1-c1c(-c2ccc(OC)c(OC)c2)sc2ccc(F)cc12 [2-089],3 (Herbicidal rate of 40% or more and less than 70%)
